Experimental data published in US9150545B2, “Carboxamide compounds and their use as calpain inhibitors V” (ABBVIE DEUTSCHLAND GMBH & CO. KG, priority 2012, dated 2015).
Where a name gives a salt, the structure may show the parent alone.

Target: T1, calpain-I isolated from human erythrocytes (Homo sapiens, UniProt P07384)
T1 construct: calpain-I—isolated from human erythrocytes (Calbiochem #208713); purchased Calbiochem 208713; host or cells: human erythrocytes (native tissue isolate)
T1 sequence (P07384 1-714): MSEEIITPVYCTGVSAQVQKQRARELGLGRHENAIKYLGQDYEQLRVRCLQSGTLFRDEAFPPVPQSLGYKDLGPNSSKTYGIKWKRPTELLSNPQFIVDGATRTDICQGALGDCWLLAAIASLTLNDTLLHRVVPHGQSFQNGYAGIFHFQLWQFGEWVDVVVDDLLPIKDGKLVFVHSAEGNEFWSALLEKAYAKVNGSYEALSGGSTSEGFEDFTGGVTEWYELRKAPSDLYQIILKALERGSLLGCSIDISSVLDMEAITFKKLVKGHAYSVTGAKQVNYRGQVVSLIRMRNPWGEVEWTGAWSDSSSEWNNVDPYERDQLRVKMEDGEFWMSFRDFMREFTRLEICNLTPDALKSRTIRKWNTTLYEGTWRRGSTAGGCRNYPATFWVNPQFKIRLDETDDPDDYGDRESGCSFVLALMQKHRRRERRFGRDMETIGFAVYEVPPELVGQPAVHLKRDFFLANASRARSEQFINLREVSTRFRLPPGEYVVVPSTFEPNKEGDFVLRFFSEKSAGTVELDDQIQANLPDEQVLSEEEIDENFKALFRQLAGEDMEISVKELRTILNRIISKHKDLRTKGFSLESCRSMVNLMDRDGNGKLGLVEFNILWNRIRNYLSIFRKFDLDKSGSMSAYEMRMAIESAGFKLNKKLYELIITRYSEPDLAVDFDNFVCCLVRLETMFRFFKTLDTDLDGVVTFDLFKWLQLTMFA
T1 sequence (P04632 1-268 partner): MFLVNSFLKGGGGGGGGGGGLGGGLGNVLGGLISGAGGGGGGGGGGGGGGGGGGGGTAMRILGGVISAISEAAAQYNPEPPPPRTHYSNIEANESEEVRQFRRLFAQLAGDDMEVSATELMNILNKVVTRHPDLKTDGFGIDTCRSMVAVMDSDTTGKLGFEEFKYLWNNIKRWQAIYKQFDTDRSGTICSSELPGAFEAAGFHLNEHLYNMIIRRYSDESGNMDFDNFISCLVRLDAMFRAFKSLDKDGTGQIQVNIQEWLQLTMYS
Experiment: Calpain I kinetic fluorescence enzyme inhibition assay
Assay type: biochemical
Details: apparent Ki from IC50 by Cheng-Prussoff
Method: Testing for blockade of the corresponding enzymic activities was carried out by means of kinetic fluorescence assays (excitation 390 nm, emission 460 nm).
Apparent Ki values were calculated from the experimentally determined IC50 values by the Cheng-Prussoff relation assuming a reversible competitive enzyme inhibition.
20 nM calpain-I—isolated from human erythrocytes (Calbiochem #208713), 100 μM Suc-Leu-Tyr-AMC (Bachem #I-1355) as substrate in buffer with 62 mM imidazole, 0.3 mM CaCl2, 0.10% CHAPS, 0.05% BSA, 1 mM DTT at pH 7.3 and room temperature.

Ki [nM]	SMILES
< 250	NC(=O)C(=O)C(Cc1ccccc1)NC(=O)c1cccnc1-n1cc2c(n1)CNCC2 (stereo not shown) [Example 46, N-(4-Amino-3,4-dioxo-1-phenyl-2-butanyl)-2-(4,5,6,7-tetrahydro-pyrazolo[3,4-c]pyridin-2-yl)nicotinamide hydrochloride]
< 250	CC1CN(Cc2ccn(-c3ncccc3C(=O)NC(Cc3ccccc3)C(=O)C(N)=O)n2)CC(C)O1 (single isomer, unassigned) [Example 2a, N-(4-Amino-3,4-dioxo-1-phenylbutan-2-yl)-2-(3-((2,6-dimethylmorpholino)-methyl)-1H-pyrazol-1-yl)nicotinamide]
< 250	CCCCC(NC(=O)c1cccnc1-n1ccc(CN2CCCCC2)n1)C(=O)C(N)=O (stereo not shown) [Example 37, N-(1-Amino-1,2-dioxoheptan-3-yl)-2-(3-(piperidin-1-ylmethyl)-1H-pyrazol-1-yl)nicotinamide]
< 250	CC(C)(C)OC(=O)N1Cc2cn(-c3ncccc3C(=O)NC(Cc3ccccc3)C(=O)C(N)=O)nc2C1 (stereo not shown) [Example 43, tert-Butyl 2-(3-(4-amino-3,4-dioxo-1-phenylbutan-2-ylcarbamoyl)pyridin-2-yl)-4,6-dihydropyrrolo[3,4-c]pyrazole-5(2H)-carboxylate]
< 250	NC(=O)C(=O)C(Cc1ccccc1)NC(=O)c1cccnc1-n1ccc(CN2CCOC(c3ccccc3)C2)n1 (stereo not shown) [Example 9, N-(4-Amino-3,4-dioxo-1-phenylbutan-2-yl)-2-(3-((2-phenylmorpholino)methyl)-1H-pyrazol-1-yl)nicotinamide trifluoroacetate]
< 250	NC(=O)C(=O)C(Cc1ccccc1)NC(=O)c1cccnc1-n1ccc(CN2CCN(c3ccccc3)CC2)n1 (stereo not shown) [Example 32, N-(4-Amino-3,4-dioxo-1-phenylbutan-2-yl)-2-(3-((4-phenylpiperazin-1-yl)methyl)-1H-pyrazol-1-yl)nicotinamide trifluoroacetate]
< 250	NC(=O)C(=O)C(Cc1ccccc1)NC(=O)c1cccnc1-n1cc2c(n1)CCN(Cc1ccccc1)C2 (stereo not shown) [Example 4, N-(4-Amino-3,4-dioxo-1-phenylbutan-2-yl)-2-(5-benzyl-4,5,6,7-tetrahydro-2H-pyrazolo[4,3-c]pyridin-2-yl)nicotinamide]
< 250	NC(=O)C(=O)C(Cc1ccccc1)NC(=O)c1cccnc1-n1ccc(CN2CC3C[C@@H](c4ccc(F)cc4)C3C2)n1 (stereo partly drawn) [Example 27, N-(4-Amino-3,4-dioxo-1-phenylbutan-2-yl)-2-(3-(((6R)-6-(4-fluorophenyl)-3-azabicyclo[3.2.0]heptan-3-yl)methyl)-1H-pyrazol-1-yl)nicotinamide trifluoroacetate]
< 250	CN(Cc1ccn(-c2ncccc2C(=O)NC(Cc2ccccc2)C(=O)C(N)=O)n1)C1CCCCC1 (stereo not shown) [Example 20, N-(4-Amino-3,4-dioxo-1-phenylbutan-2-yl)-2-(3-((cyclohexyl(methyl)amino)methyl)-1H-pyrazol-1-yl)nicotinamide trifluoroacetate]
< 250	CN(Cc1ccn(-c2ncccc2C(=O)NC(Cc2ccccc2)C(=O)C(N)=O)n1)C1CC1 (stereo not shown) [Example 26, N-(4-Amino-3,4-dioxo-1-phenylbutan-2-yl)-2-(3-((cyclopropyl(methyl)amino)methyl)-1H-pyrazol-1-yl)nicotinamide trifluoroacetate]
< 250	NC(=O)C(=O)C(Cc1ccccc1)NC(=O)c1cccnc1-n1ccc(CN2Cc3ccccc3C2)n1 (stereo not shown) [Example 19, N-(4-Amino-3,4-dioxo-1-phenylbutan-2-yl)-2-(3-(isoindolin-2-ylmethyl)-1H-pyrazol-1-yl)nicotinamide]
< 250	NC(=O)C(=O)C(Cc1ccccc1)NC(=O)c1cccnc1-n1ccc(CN2CCOC3CCCCC32)n1 (single isomer, unassigned) [Example 8a, 2-(3-((2H-Benzo[b][1,4]oxazin-4(3H,4aH,5H,6H,7H,8H,8aH)-yl)methyl)-1H-pyrazol-1-yl)-N-(4-amino-3,4-dioxo-1-phenylbutan-2-yl)nicotinamide trifluoroacetate]
< 250	NC(=O)C(=O)C(Cc1ccccc1)NC(=O)c1cccnc1-n1ccc(CN2CCC(F)(F)CC2)n1 (stereo not shown) [Example 3, N-(4-Amino-3,4-dioxo-1-phenylbutan-2-yl)-2-(3-((4,4-difluoropiperidin-1-yl)methyl)-1H-pyrazol-1-yl)nicotinamide trifluoroacetate]
250 to 400	NC(=O)C(=O)C(Cc1ccccc1)NC(=O)c1cccnc1-n1ccc(CN2CCCC2)n1 (stereo not shown) [Example 10, N-(4-Amino-3,4-dioxo-1-phenylbutan-2-yl)-2-(3-(pyrrolidin-1-ylmethyl)-1H-pyrazol-1-yl)nicotinamide trifluoroacetate]
< 250	NC(=O)C(=O)C(Cc1ccccc1)NC(=O)c1cccnc1-n1ccc(CN2CCc3ccccc3C2)n1 (stereo not shown) [Example 22, N-(4-Amino-3,4-dioxo-1-phenylbutan-2-yl)-2-(3-((3,4-dihydroisoquinolin-2(1H)-yl)methyl)-1H-pyrazol-1-yl)nicotinamide]
< 250	CC1CCN(Cc2ccn(-c3ncccc3C(=O)NC(Cc3ccccc3)C(=O)C(N)=O)n2)CC1 (stereo not shown) [Example 24, N-(4-Amino-3,4-dioxo-1-phenylbutan-2-yl)-2-(3-((4-methylpiperidin-1-yl)methyl)-1H-pyrazol-1-yl)nicotinamide trifluoroacetate]
< 250	NC(=O)C(=O)C(Cc1ccccc1)NC(=O)c1cccnc1-n1ccc(CN2CC3CC(F)(F)CC3C2)n1 (stereo not shown) [Example 13, N-(4-amino-3,4-dioxo-1-phenyl-2-butanyl)-2-{3-[(5,5-difluorohexahydrocyclopenta[c]pyrrol-2(1H)-yl)methyl]-1H-pyrazol-1-yl}nicotinamide trifluoroacetate]
800 to 1000	O=C(NC1CC1)C(=O)C(Cc1ccccc1)NC(=O)c1cccnc1-n1ccc(CN2Cc3ccccc3C2)n1 (stereo not shown) [Example C2, reference compound]
< 250	NC(=O)C(=O)C(Cc1ccccc1)NC(=O)c1cccnc1-n1ccc(CN2CCOCC2)n1 (stereo not shown) [Example 1, N-(4-Amino-3,4-dioxo-1-phenylbutan-2-yl)-2-(3-(morpholinomethyl)-1H-pyrazol-1-yl)nicotinamide]
< 250	NC(=O)C(=O)C(Cc1ccccc1)NC(=O)c1cccnc1-n1ccc(CN2CCOC3CCCCC32)n1 (single isomer, unassigned) [Example 8b, 2-(3-((2H-Benzo[b][1,4]oxazin-4(3H,4aH,5H,6H,7H,8H,8aH)-yl)methyl)-1H-pyrazol-1-yl)-N-(4-amino-3,4-dioxo-1-phenylbutan-2-yl)nicotinamide trifluoroacetate]
< 250	CC(C)(C)OC(=O)N1CCc2cn(-c3ncccc3C(=O)NC(Cc3ccccc3)C(=O)C(N)=O)nc2C1 (stereo not shown) [Example 45, tert-Butyl 2-(3-(4-amino-3,4-dioxo-1-phenylbutan-2-ylcarbamoyl)pyridin-2-yl)-2,4,5,7-tetrahydro-6H-pyrazolo[3,4-c]pyridine-6-carboxylate]
< 250	NC(=O)C(=O)C(Cc1ccccc1)NC(=O)c1cccnc1-n1ccc(CN2CCS(=O)(=O)CC2)n1 (stereo not shown) [Example 34, N-(4-Amino-3,4-dioxo-1-phenyl-2-butanyl)-2-{3-[(1,1-dioxido-4-thiomorpholinyl)methyl]-1H-pyrazol-1-yl}nicotinamide trifluoroacetate]
< 250	NC(=O)C(=O)C(Cc1ccccc1)NC(=O)c1cccnc1-n1ccc(CN2CCC(c3ccccc3)CC2)n1 (stereo not shown) [Example 5, N-(4-Amino-3,4-dioxo-1-phenylbutan-2-yl)-2-(3-((4-phenylpiperidin-1-yl)methyl)-1H-pyrazol-1-yl)nicotinamide]
< 250	NC(=O)C(=O)C(Cc1ccccc1)NC(=O)c1cccnc1-n1ccc(CN2Cc3ccccc3C2=O)n1 (stereo not shown) [Example 36, N-(4-Amino-3,4-dioxo-1-phenylbutan-2-yl)-2-(3-((1-oxoisoindolin-2-yl)methyl)-1H-pyrazol-1-yl)nicotinamide]
< 250	NC(=O)C(=O)C(Cc1ccccc1)NC(=O)c1cccnc1-n1ccc(CN2CC3COCC3C2)n1 (stereo not shown) [Example 14, N-(4-Amino-3,4-dioxo-1-phenylbutan-2-yl)-2-(3-((dihydro-1H-furo[3,4-c]pyrrol-5(3H,6H,6aH)-yl)methyl)-1H-pyrazol-1-yl)nicotinamide trifluoroacetate]
